Measured values: patent publication EP0151577B1 (priority 1983, dated 1984)

Tested on: rat
Experiment: Anti-stress activity: restraint ulcer in the rat
Type: in vivo
Settings: 174 mg/kg i.p.
Excerpt: BONFILS, S., LIEFOOGHE, GK, ROSSI, G. and LAMBLING, A. L'ulcère de contrainte du Rat blanc. Modifications de la fréquence lesionnelle par différents precedes opératoires et pharmacodynamiques. C.R. Soc. Biol., 151, 1149, 1957.
BONFILS, S., ROSSI, G., LIEFOOGHE, G. and LAMBLING, A., Ulcère experimental de contrainte, I. Méthodes, fréquence des lesions, modifications par certains precedes techniques et pharmacologiques. Rev. franç. Etudes clin. biol., 4,146, 1959.

In the case of `O=C(O)C(Cc1c[nH]c2ccc(O)cc12)NCC1(O)OCC(O)C(O)C1O` (centres unmarked) [DF-5HTP, N-1-desoxyfructo-5-hydroxytryptophane], the “Effet anti-ulcère chez le rat (18 heures sous contrainte) Indice d'Ul-cération” value (témoin 34) is reported as 10^**(4) and the “Effet anti-ulcère chez le rat (18 heures sous contrainte) % Ul-cération” value (témoin 90) is reported as 50%.
